Test results as given in US20110071220A1, “Use of Tetronic Acid Derivatives for Fighting Insects and Red Spider Mites by Watering on the Ground, Droplet Application or Immersion Application” (Bayer CropScience AG, priority 2008, published 2011).

Tests used:
Assay type in all cases: in vivo
[1] = system: whiteflies (Bemisia tabaci); test: Bemisia tabaci test on cucumbers, drench application in rock wool; settings: 20 mg of ai/plant, days between application and infestation −11, mortality determined 18 days after infestation
Description: (§1) To produce a suitable solution, the product is mixed with water and diluted with water to the desired concentration. The desired amount of additive is added to the mixtures.
Cucumbers (Cucumis sativa) are cultivated in rock wool and infested with whiteflies (Bemisia tabaci). At the 2-leaf stage, the product solution in question is applied to the rock wool. The stated concentration refers to the amount of active compound per plant.
(§2) After the desired period of time, the effect in % is determined. 100% means that all the whiteflies have been killed; 0% means that none of the whiteflies have been killed.

[2] = system: greenhouse red spider mite (Tetranychus urticae); test: Tetranychus urticae test, soil application in rock wool (eggplants); settings: 10 mg of ai/plant
Description: To produce a suitable solution, the product is mixed with water and diluted with water to the desired concentration. The desired amount of additive is added to the mixtures. Eggplants (Solanum melongena) are cultivated in rock wool. At the 4-leaf stage, the product solution in question is applied to the rock wool. The stated concentration refers to the amount of active compound per plant.
At the desired point in time, the plants are infested with a mixed population of the greenhouse red spider mite (Tetranychus urticae).
After the desired period of time, the effect in % is determined. 100% means that all spider mites have been killed; 0% means that none of the spider mites have been killed.

[3] = system: whiteflies (Bemisia tabaci); test: Bemisia tabaci test on tomatoes, drench application in rock wool; settings: 5 mg of ai/plant; tomato plants in rock wool; days between application and infestation −11; mortality determined 25 days after infestation
Description: as §1
Tomato plants (Solanum lycopersicum) are cultivated in rock wool and infested with whiteflies (Bemisia tabaci). At the 2-leaf stage, the product solution in question is applied to the rock wool. The stated concentration refers to the amount of active compound per plant.
as §2

Compound `Cc1cc(C)c(C2=C(OC(=O)CC(C)(C)C)C3(CCCC3)OC2=O)c(C)c1` [spiromesifen (II-2), spiromesifen] has a Mortality [1] of 0%, a Mortality ([2]; days between application and infestation 14, mortality determined 14 days after infestation) of 20% and a Mortality ([2]; days between application and infestation −1, mortality determined 7 days after infestation) of 30%. It also gave a Mortality ([2]; days between application and infestation −1, mortality determined 14 days after infestation) of 10% and a Mortality [3] of 80%.
